This passage reports IC50 results from patent US20190388425A1, “SUBSTITUTED IMIDAZOPYRIDINPYRIMIDINES” (Bayer Pharma Aktiengesellschaft, priority 2017, published 2019).

A value given as a limit tells only on which side of the number the result lay.

The target in this test is T1, human full-length MKNK1 (Homo sapiens, UniProt Q9BUB5, T385D).
T1 construct: GST (N); purchased Carna Biosciences 02-145; host or cells: insect cells (baculovirus expression system)
Nature of the test: MKNK1 kinase high ATP assay (TR-FRET). It counts as biochemical. The settings on record: TR-FRET, 2 mM ATP (high ATP), 15 min preincubation with enzyme, 30 min reaction at 22° C.; read-out: MKNK1 IC50. Summed up: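 Full-length human MKNK1 (T385D) preincubated 15 min at 22 °C with compound in HEPES pH 7.5/MgCl2/DTT buffer; reaction with 2 mM ATP (final) and 0.06 μM biotinylated peptide (final), 30 min at 22 °C.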

As usually defined, the IC50 is the concentration at which inhibition is half-maximal.

T1 sequence (Q9BUB5 1-424 isoform Q9BUB5-2 T344D): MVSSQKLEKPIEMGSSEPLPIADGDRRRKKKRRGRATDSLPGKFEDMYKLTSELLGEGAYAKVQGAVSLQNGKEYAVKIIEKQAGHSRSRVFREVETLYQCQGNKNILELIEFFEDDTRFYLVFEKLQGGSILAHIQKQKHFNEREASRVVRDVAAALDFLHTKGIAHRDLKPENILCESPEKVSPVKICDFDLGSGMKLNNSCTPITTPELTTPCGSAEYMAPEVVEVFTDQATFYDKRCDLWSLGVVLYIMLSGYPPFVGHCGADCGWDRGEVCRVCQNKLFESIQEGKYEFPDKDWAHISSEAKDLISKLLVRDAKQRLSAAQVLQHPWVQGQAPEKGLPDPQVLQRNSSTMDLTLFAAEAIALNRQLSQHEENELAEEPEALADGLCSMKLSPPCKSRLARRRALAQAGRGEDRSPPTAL

Take `Cc1cc(Nc2ncnc3sc4c(c23)CC[C@H](C(=O)N2CCC2)C4)c(=O)n2c1C(=O)N[C@]21CC[C@@](O)(C(F)(F)F)CC1` [Example 61, (cis)-6′-{[(7S)-7-(Azetidin-1-ylcarbonyl)-5,6,7,8-tetrahydro[1]benzothieno[2,3-d]pyrimidin-4-yl]amino}-4-hydroxy-8′-methyl-4-(trifluoromethyl)-2′H-spiro[cyclohexane-1,3′-imidazo[1,5-a]pyridine]-1′,5′-dione]: the IC50 amounted to 8.4 nM.

As to `Cc1cc(Nc2ncnc3sc4c(c23)CC[C@H](C(=O)O)C4)c(=O)n2c1C(=O)NC21CCC(F)(F)CC1` [Example 42, (7S)-4-[(4,4-Difluoro-8′-methyl-1′,5′-dioxo-1′,5′-dihydro-2′H-spiro[cyclohexane-1,3′-imidazo[1,5-a]pyridin]-6′-yl)amino]-5,6,7,8-tetrahydro[1]benzothieno[2,3-d]pyrimidine-7-carboxylic acid], the IC50 was 24.5 nM.

In the case of `CC1(C)NC(=O)c2c(Cl)cc(Nc3ncnc4sc5c(c34)CC[C@H](C(N)=O)C5)c(=O)n21` [Example 110, (7S)-4-[(8-Chloro-3,3-dimethyl-1,5-dioxo-1,2,3,5-tetrahydroimidazo[1,5-a]pyridin-6-yl)amino]-5,6,7,8-tetrahydro[1]benzothieno[2,3-d]pyrimidine-7-carboxamide], the IC50 is 1.2 nM.

As to `Cc1cc(Nc2ncnc3sc4c(c23)CC[C@H](C(=O)N2CC(N)C2)C4)c(=O)n2c1C(=O)NC21CCCCC1` [Example 11, 6′-({(7S)-7-[(3-Aminoazetidin-1-yl)carbonyl]-5,6,7,8-tetrahydro[1]benzothieno[2,3-d]pyrimidin-4-yl}amino)-8′-methyl-2′H-spiro[cyclohexane-1,3′-imidazo[1,5-a]pyridine]-1′,5′-dione], the IC50 is 0.5 nM.

For `Cc1cc(Nc2ncnc3sc4c(c23)CC[C@H](C(=O)N2CC(C#N)C2)C4)c(=O)n2c1C(=O)NC21CCCC1` [Example 39, 1-({(7S)-4-[(8′-Methyl-1′,5′-dioxo-1′,5′-dihydro-2′H-spiro[cyclopentane-1,3′-imidazo[1,5-a]pyridin]-6′-yl)amino]-5,6,7,8-tetrahydro[1]benzothieno[2,3-d]pyrimidin-7-yl}carbonyl)azetidine-3-carbonitrile], the IC50 was 3.3 nM.

For the compound `CN(C)C(=O)[C@H]1CCc2c(sc3ncnc(Nc4cc(Cl)c5n(c4=O)C4(CCCCC4)NC5=O)c23)C1` [Example 75, (7S)-4-[(8′-Chloro-1′,5′-dioxo-1′,5′-dihydro-2′H-spiro[cyclohexane-1,3′-imidazo[1,5-a]pyridin]-6′-yl)amino]-N,N-dimethyl-5,6,7,8-tetrahydro[1]benzothieno[2,3-d]pyrimidine-7-carboxamide], the IC50 is 1.7 nM.

In the case of `CN(C)C(=O)[C@H]1CCc2c(sc3ncnc(Nc4cc(Cl)c5n(c4=O)C4(CCC4)NC5=O)c23)C1` [Example 95, (7S)-4-[(8′-Chloro-1′,5′-dioxo-1′,5′-dihydro-2′H-spiro[cyclobutane-1,3′-imidazo[1,5-a]pyridin]-6′-yl)amino]-N,N-dimethyl-5,6,7,8-tetrahydro[1]benzothieno[2,3-d]pyrimidine-7-carboxamide], the IC50 amounted to 1.9 nM.

Regarding `Cc1cc(Nc2ncnc3sc4c(c23)CC[C@H](C(=O)N2C[C@H]3C[C@@H]2CO3)C4)c(=O)n2c1C(=O)NC21CCC1` [Example 26, 8′-Methyl-6′-({(7S)-7-[(1R,4R)-2-oxa-5-azabicyclo[2.2.1]hept-5-ylcarbonyl]-5,6,7,8-tetrahydro[1]benzothieno[2,3-d]pyrimidin-4-yl}amino)-2′H-spiro[cyclobutane-1,3′-imidazo[1,5-a]pyridine]-1′,5′-dione], the IC50 was determined as 0.7 nM.

For `Cc1cc(Nc2ncnc3sc4c(c23)CC[C@H](C(=O)N2C3CCC2CC(=O)C3)C4)c(=O)n2c1C(=O)NC21CCCCC1` [Example 13, 8′-Methyl-6′-({(7S)-7-[(3-oxo-8-azabicyclo[3.2.1]oct-8-yl)carbonyl]-5,6,7,8-tetrahydro[1]benzothieno[2,3-d]pyrimidin-4-yl}amino)-2′H-spiro[cyclohexane-1,3′-imidazo[1,5-a]pyridine]-1′,5′-dione], the IC50 stood at 0.4 nM.

On to `CN(C)[C@H]1CCN(C(=O)[C@H]2CCc3c(sc4ncnc(Nc5cc(Cl)c6n(c5=O)C5(CCC5)NC6=O)c34)C2)C1` [Example 98, 8′-Chloro-6′-({(7S)-7-[(3S)-3-(dimethylamino)pyrrolidine-1-carbonyl]-5,6,7,8-tetrahydro[1]benzothieno[2,3-d]pyrimidin-4-yl}amino)-2′H-spiro[cyclobutane-1,3′-imidazo[1,5-a]pyridine]-1′,5′-dione], for which the IC50 was under 0.1 nM.
